In US6225321A (priority 1997, dated 2001):

Assay: Half-life / conversion of dinalbuphine sebacoyl ester in human blood
Format: in vitro ADME
Conditions: for Elimination half-life: n = 3, mean ± S.E.
Procedure: IV. For Human Experiments
(a) Dinalbuphine sebacoyl ester was dissolved in acetonitrile, the concentration was 10 mg/ml.
(b) 250 ml of whole blood collected from rats given dinalbuphine sebacoyl ester, and anticoagulant was added.

## O=C(CCCCCCCCC(=O)Oc1ccc2c3c1O[C@H]1[C@@H](O)CC[C@@]4(O)[C@@H](C2)N(CC2CCC2)CC[C@]314)Oc1ccc2c3c1O[C@H]1[C@@H](O)CC[C@@]4(O)[C@@H](C2)N(CC2CCC2)CC[C@]314 [sebacoyl dinalbuphine ester]
Human plasma
  Elimination half-life: 9.0 ± 0.4 min
Human red blood cell
  Elimination half-life: 7.7 ± 0.4 min
Human whole blood
  Elimination half-life: 8.8 ± 0.4 min
humans
  converted time of 90% into Nalbuphine: 30 min
humans, HPLC
  half life: 9.0 min
